Reference: ChEMBL document CHEMBL2034887, “Substituted phenoxypropyl-(R)-2-methylpyrrolidine aminomethyl ketones as histamine-3 receptor inverse agonists” (Bioorg Med Chem Lett, 2012)
Active and inactive are the calls of the source. The rule behind the calls is not given here.

Tests used:
Histamine H3 receptor [1] = target: Histamine H3 receptor (Rattus norvegicus, UniProt Q9QYN8); experiment: Displacement of [3H]NAMH from rat histamine H3 receptor expressed in CHO cells; format: cell-based
Histamine H3 receptor [2] = target: T1, Histamine H3 receptor (Homo sapiens, UniProt Q9Y5N1); experiment: Displacement of [3H]NAMH from human histamine H3 receptor expressed in CHO cells; format: cell-based
[3] = Ratio of drug level in brain to plasma in rat at 5 mg/kg, po measured after 6 hrs; format: ADME, organism-based; design: dose 5 mg/kg, route oral; conditions: read-out: BPR
Cytochrome P450 1A2 = target: T2, Cytochrome P450 1A2 (Homo sapiens, UniProt P05177); experiment: Inhibition of CYP1A2; format: ADME
T2 sequence (P05177 whole entry): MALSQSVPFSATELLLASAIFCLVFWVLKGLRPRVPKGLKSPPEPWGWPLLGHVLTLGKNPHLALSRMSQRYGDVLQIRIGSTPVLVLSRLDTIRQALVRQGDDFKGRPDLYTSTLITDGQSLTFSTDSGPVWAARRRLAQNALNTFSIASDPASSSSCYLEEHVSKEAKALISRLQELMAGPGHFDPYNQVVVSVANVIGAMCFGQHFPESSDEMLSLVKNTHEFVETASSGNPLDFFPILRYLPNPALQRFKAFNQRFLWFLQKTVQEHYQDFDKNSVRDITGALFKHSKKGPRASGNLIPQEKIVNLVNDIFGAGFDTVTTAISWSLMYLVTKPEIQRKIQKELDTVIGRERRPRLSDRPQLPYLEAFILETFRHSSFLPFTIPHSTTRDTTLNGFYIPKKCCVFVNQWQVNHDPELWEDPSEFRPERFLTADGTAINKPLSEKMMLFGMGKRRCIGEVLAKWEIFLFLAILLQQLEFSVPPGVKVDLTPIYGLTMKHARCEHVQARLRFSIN

[4] = Clearance in rat at […], iv; format: ADME, organism-based; conditions: in vivo
[5] = Oral bioavailability in rat at 5 mg/kg; format: ADME, organism-based; conditions: in vivo
[6] = Volume of distribution in rat at […], iv; format: ADME, organism-based; conditions: in vivo
Cytochrome P450 2C19 = Cytochrome P450 2C19 (Homo sapiens, UniProt P33261); experiment: Inhibition of CYP2C19; format: ADME
Cytochrome P450 3A4 = Cytochrome P450 3A4 (Homo sapiens, UniProt P08684); experiment: Inhibition of CYP3A4; format: ADME
Cytochrome P450 2C9 = Cytochrome P450 2C9 (Homo sapiens, UniProt P11712); experiment: Inhibition of CYP2C9; format: ADME
Rattus norvegicus [7] = experiment: Inhibition of RAMH-induced dipsogenia in rat at 1 mg/kg, ip; format: functional, organism-based; design: dose 1 mg/kg
[8] = Cmax in rat at 5 mg/kg, po; format: ADME, organism-based; design: dose 5 mg/kg, route oral; conditions: in vivo
Rattus norvegicus [9] = experiment: Wake promoting activity in EEG/EMG Sprague-Dawley rat model at 30 mg/kg, ip measured after 3.5 hrs relative to control; format: functional, organism-based; design: dose 30 mg/kg
Histamine H3 receptor [10] = target: T1, Histamine H3 receptor; experiment: Inverse agonist activity at human histamine H3 receptor by [35S]-GTPgammaS binding assay; format: functional
Cytochrome P450 2D6 = Cytochrome P450 2D6 (Homo sapiens, UniProt P10635); experiment: Inhibition of CYP2D6; format: ADME
Rattus norvegicus [11] = experiment: Wake promoting activity in EEG/EMG Sprague-Dawley rat model assessed as sleep rebound at 10 to 30 mg/kg, ip; format: functional, organism-based
Rattus norvegicus [12] = experiment: Wake promoting activity in EEG/EMG Sprague-Dawley rat model assessed as wake time at 30 mg/kg, ip measured up to 4 hrs (reference value: 85 +/- 9 mins); format: functional; conditions: route intraperitoneal
Rattus norvegicus [13] = experiment: Wake promoting activity in EEG/EMG Sprague-Dawley rat model assessed as wake time at 10 mg/kg, ip measured up to 4 hrs (reference value: 85 +/- 9 mins); format: functional; conditions: route intraperitoneal
Rattus norvegicus [14] = experiment: Wake promoting activity in EEG/EMG Sprague-Dawley rat model measured up to 4 hrs post dosing; format: functional, organism-based
Rattus norvegicus [15] = experiment: Wake promoting activity in EEG/EMG Sprague-Dawley rat model assessed as cumulative wake time at 30 mg/kg, ip measured after 5 hrs relative to control; format: functional; conditions: route intraperitoneal
Rattus norvegicus [16] = experiment: Wake promoting activity in EEG/EMG Sprague-Dawley rat model assessed as maximal cumulative wake surplus time at 10 to 30 mg/kg, ip measured after 9 hrs; format: functional; conditions: dose mg/kg 10-30; route intraperitoneal
Histamine H3 receptor [17] = target: T1, Histamine H3 receptor; experiment: Antagonist activity at human histamine H3 receptor assessed as inhibition of [35S]-GTPgammaS binding; format: functional
[18] = Half life in rat at […], iv; format: ADME, organism-based; conditions: in vivo
[19] = AUC in rat at 5 mg/kg, po; format: ADME, organism-based; design: dose 5 mg/kg, route oral; conditions: plasma
Rattus norvegicus [20] = experiment: Wake promoting activity in EEG/EMG Sprague-Dawley rat model at 30 mg/kg, ip measured after 4 hrs relative to vehicle-treated control; format: functional; conditions: route intraperitoneal
[21] = Half life in dog liver microsomes; format: ADME, Canis lupus familiaris, Microsome
[22] = Half life in rat liver microsomes; format: ADME, Microsome
Rattus norvegicus [23] = experiment: Inhibition of RAMH-induced dipsogenia in ip dosed rat; format: functional
[24] = Half life in monkey liver microsomes; format: ADME, Macaca mulatta, Microsome; conditions: rhesus monkey
[25] = Half life in mouse liver microsomes; format: ADME, Microsome
[26] = Half life in human liver microsomes; format: ADME, Microsome

T1 sequence (Q9Y5N1 whole entry): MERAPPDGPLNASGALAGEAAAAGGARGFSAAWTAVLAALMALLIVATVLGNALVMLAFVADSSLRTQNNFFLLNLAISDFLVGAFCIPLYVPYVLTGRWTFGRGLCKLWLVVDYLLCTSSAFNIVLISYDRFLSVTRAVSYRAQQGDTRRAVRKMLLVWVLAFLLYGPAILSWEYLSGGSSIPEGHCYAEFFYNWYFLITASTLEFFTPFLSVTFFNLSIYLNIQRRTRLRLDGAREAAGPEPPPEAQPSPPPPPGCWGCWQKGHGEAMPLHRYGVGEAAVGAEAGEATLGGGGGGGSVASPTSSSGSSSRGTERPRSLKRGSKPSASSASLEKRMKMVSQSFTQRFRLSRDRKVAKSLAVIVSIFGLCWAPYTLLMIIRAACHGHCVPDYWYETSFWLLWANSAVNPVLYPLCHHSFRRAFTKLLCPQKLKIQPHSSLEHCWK
Chain of Cytochrome P450 2D6 (P10635 whole entry): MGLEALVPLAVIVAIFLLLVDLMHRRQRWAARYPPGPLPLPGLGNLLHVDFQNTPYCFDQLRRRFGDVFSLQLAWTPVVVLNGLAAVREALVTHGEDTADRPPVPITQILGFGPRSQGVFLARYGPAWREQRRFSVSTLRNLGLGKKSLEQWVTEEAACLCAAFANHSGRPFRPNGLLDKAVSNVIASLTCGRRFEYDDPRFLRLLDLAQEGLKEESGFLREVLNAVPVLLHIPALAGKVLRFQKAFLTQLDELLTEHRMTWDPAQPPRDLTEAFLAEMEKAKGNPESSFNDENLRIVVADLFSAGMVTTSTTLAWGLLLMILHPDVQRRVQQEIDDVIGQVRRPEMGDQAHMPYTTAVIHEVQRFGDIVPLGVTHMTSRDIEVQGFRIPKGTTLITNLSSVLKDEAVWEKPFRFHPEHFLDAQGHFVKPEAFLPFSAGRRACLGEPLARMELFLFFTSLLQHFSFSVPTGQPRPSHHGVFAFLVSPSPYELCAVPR
Chain of Histamine H3 receptor (Rattus norvegicus, UniProt Q9QYN8) (Q9QYN8 whole entry): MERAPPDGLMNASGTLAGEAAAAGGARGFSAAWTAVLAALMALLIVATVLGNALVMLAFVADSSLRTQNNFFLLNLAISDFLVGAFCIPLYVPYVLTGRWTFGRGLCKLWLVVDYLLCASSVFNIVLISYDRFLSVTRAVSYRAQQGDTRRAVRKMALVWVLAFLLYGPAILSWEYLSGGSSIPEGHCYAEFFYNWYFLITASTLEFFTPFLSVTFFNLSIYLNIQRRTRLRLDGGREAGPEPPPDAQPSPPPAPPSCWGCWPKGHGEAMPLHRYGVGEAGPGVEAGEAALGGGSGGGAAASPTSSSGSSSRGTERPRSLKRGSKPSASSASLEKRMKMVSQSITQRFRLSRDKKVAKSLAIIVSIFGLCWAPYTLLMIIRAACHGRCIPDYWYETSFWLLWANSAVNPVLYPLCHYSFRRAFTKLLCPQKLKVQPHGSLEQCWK
Chain of Cytochrome P450 2C9 (P11712 whole entry): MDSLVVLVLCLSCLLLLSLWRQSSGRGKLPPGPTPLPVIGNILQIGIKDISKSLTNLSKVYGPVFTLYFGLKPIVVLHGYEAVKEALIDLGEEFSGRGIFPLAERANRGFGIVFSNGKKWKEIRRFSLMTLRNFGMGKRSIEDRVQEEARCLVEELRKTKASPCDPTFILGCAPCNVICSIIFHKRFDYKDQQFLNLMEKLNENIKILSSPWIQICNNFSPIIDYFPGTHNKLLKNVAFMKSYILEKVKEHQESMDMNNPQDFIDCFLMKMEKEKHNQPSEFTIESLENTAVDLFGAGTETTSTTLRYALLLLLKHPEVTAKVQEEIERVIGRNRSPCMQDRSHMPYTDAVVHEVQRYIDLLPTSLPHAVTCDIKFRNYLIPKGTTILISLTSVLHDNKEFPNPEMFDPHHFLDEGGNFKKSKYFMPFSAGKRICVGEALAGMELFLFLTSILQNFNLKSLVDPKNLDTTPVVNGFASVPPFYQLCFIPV
Chain of Cytochrome P450 3A4 (P08684 whole entry): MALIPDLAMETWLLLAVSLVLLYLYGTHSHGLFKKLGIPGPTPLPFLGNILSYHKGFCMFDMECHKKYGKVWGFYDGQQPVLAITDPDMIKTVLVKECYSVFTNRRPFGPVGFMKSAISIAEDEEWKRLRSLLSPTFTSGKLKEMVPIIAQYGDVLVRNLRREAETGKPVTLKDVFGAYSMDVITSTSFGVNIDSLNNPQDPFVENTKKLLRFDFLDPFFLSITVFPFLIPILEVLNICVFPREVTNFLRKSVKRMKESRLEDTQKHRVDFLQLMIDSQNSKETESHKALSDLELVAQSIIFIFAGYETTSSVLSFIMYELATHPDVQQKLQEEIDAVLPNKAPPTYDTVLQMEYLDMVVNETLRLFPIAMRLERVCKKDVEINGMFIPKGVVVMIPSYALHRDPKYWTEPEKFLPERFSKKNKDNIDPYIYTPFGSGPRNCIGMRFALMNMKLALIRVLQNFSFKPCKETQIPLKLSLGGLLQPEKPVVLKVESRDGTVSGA
Chain of Cytochrome P450 2C19 (P33261 whole entry): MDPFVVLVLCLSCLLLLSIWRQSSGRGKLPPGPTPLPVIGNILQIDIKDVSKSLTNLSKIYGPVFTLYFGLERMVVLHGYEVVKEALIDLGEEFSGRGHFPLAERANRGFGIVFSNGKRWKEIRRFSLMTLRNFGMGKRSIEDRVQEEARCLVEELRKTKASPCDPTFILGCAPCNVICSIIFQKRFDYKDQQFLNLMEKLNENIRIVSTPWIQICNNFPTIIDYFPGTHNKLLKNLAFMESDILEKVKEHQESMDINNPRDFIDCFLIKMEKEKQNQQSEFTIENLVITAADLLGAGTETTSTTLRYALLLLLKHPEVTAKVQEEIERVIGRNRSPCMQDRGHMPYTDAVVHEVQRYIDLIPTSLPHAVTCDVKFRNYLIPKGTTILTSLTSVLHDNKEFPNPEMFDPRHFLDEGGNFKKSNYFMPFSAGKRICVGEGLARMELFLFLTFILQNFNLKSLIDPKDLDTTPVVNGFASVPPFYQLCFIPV

Compound	Ki (Histamine H3 receptor [1]) [nM]	Ki (Histamine H3 receptor [2]) [nM]	Kp at 6 h [3]	clearance [4] [mL/min/kg]	bioavailability [5] [%]	Vd [6] [L/kg]	IC50 (Cytochrome P450 2D6) [nM]	half-life [18] [min]	also measured
C[C@@H]1CCCN1CCCOc1ccc(C(=O)CN2CCN(C(=O)c3ccco3)CC2)cc1	16	2	< 0.6						
C[C@@H]1CCCN1CCCOc1ccc(C(=O)CN2CCC(F)(F)CC2)cc1	43	11	25	53	15	2.2	> 30000	30	IC50 (Cytochrome P450 1A2): > 30000 nM; IC50 (Cytochrome P450 2C19): > 30000 nM; IC50 (Cytochrome P450 3A4): > 30000 nM; IC50 (Cytochrome P450 2C9): > 30000 nM; inhibition (Rattus norvegicus [7]): Active; Cmax [8]: 66 ng/mL; Activity (Rattus norvegicus [9]): Active; EC50 (Histamine H3 receptor [10]): 1.8 nM; Activity (Rattus norvegicus [11]): inactive; Time (Rattus norvegicus [12]): 195 min; Time (Rattus norvegicus [13]): 150 min; Activity (Rattus norvegicus [14]): Dose-dependent effect; Time (Rattus norvegicus [15]): 113 min; Time (Rattus norvegicus [16]): 46 min; Kb (Histamine H3 receptor [17]): 3.7 nM; AUC [19]: 266 ng·h/mL
C[C@@H]1CCCN1CCCOc1ccc(C(=O)CN2CCN(C(=O)c3ccccc3)CC2)cc1	14	1.9	1.5	14	14	1.4	> 30000	72	IC50 (Cytochrome P450 1A2): > 30000 nM; Activity (Rattus norvegicus [20]): 33%; IC50 (Cytochrome P450 2C19): > 30000 nM; IC50 (Cytochrome P450 3A4): > 30000 nM; IC50 (Cytochrome P450 2C9): > 30000 nM; half-life [21]: > 40 min; Cmax [8]: 165 ng/mL; EC50 (Histamine H3 receptor [10]): 1 nM; half-life [22]: > 40 min; ED50 (Rattus norvegicus [23]): 0.43 mg/kg; inhibition (Rattus norvegicus [23]): Dose-dependent effect; half-life [24]: > 40 min; Kb (Histamine H3 receptor [17]): 0.8 nM; half-life [25]: > 40 min; AUC [19]: 689 ng·h/mL; half-life [26]: > 40 min
C[C@@H]1CCCN1CCCOc1ccc(C(=O)CN2CCN(C(=O)c3cccn3C)CC2)cc1	9.4	0.9	< 0.6						
C[C@@H]1CCCN1CCCOc1ccc(C(=O)CN2CCN(C(=O)c3cccs3)CC2)cc1	9	4.2							
C[C@@H]1CCCN1CCCOc1ccc(C(=O)CN2CCN(S(C)(=O)=O)CC2)cc1	26	3.4	< 0.6						
CCOC(=O)N1CCN(CC(=O)c2ccc(OCCCN3CCC[C@H]3C)cc2)CC1	23	4	2.4	16	33	2.8	5000	126	
C[C@@H]1CCCN1CCCOc1ccc(C(=O)CN2CCC(C(F)(F)F)CC2)cc1	9.1	2.5							
C[C@@H]1CCCN1CCCOc1ccc(C(=O)CN2CCN(C(=O)C(F)(F)F)CC2)cc1	17	2.1							
CC(=O)N1CCN(CC(=O)c2ccc(OCCCN3CCC[C@H]3C)cc2)CC1	30	2.8	< 0.6						
